Data from ChEMBL document CHEMBL4507281, “Data for DCP probe BI-4394” (2021).

Experiments:
[1] = molecular target: Mitogen-activated protein kinase 6 (Homo sapiens) (UniProt Q16659); conditions: Compound concentration 100.0 nM
[2] = molecular target: Ephrin type-B receptor 1 (Homo sapiens) (UniProt P54762); conditions: Compound concentration 100.0 nM
[3] = molecular target: T1, Phosphorylase b kinase regulatory subunit alpha, liver isoform (Homo sapiens) (UniProt P46019); conditions: Compound concentration 100.0 nM
T1 sequence (whole entry): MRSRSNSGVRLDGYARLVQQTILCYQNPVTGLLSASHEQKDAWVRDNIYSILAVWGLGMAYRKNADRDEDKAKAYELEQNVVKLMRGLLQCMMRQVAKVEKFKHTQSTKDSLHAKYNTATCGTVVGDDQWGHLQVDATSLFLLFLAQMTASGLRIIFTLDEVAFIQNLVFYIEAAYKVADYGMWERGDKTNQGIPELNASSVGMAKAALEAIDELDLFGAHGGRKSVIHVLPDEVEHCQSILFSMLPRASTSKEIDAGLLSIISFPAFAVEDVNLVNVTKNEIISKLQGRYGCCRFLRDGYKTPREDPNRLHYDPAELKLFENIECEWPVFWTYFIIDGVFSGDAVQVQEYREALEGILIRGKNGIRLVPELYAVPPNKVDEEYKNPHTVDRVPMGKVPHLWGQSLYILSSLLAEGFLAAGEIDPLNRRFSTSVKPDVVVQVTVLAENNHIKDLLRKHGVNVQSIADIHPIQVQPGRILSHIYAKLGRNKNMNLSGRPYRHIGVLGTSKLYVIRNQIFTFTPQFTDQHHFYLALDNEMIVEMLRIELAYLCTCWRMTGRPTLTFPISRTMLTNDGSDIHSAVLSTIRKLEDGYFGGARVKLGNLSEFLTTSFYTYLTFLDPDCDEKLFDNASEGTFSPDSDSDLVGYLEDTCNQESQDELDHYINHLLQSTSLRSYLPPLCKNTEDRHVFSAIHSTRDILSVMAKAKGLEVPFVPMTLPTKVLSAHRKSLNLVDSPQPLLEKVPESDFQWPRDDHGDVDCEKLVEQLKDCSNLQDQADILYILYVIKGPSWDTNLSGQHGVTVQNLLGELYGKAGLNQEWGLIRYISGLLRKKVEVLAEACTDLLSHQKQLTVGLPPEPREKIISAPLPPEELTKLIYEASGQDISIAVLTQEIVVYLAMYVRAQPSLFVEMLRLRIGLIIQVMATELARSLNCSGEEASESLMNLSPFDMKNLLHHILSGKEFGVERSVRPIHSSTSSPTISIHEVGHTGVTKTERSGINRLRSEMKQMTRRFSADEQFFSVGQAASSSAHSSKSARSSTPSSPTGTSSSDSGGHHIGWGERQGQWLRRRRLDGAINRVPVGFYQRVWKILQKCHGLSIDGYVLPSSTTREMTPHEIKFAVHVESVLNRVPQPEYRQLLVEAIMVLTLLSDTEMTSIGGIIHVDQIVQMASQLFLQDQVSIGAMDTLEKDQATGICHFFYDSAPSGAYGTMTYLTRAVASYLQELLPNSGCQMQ

[4] = molecular target: Serine/threonine-protein kinase Nek4 (Homo sapiens) (UniProt P51957); conditions: Compound concentration 100.0 nM
Chain of Serine/threonine-protein kinase Nek4 (Homo sapiens) (P51957 whole entry, looked up): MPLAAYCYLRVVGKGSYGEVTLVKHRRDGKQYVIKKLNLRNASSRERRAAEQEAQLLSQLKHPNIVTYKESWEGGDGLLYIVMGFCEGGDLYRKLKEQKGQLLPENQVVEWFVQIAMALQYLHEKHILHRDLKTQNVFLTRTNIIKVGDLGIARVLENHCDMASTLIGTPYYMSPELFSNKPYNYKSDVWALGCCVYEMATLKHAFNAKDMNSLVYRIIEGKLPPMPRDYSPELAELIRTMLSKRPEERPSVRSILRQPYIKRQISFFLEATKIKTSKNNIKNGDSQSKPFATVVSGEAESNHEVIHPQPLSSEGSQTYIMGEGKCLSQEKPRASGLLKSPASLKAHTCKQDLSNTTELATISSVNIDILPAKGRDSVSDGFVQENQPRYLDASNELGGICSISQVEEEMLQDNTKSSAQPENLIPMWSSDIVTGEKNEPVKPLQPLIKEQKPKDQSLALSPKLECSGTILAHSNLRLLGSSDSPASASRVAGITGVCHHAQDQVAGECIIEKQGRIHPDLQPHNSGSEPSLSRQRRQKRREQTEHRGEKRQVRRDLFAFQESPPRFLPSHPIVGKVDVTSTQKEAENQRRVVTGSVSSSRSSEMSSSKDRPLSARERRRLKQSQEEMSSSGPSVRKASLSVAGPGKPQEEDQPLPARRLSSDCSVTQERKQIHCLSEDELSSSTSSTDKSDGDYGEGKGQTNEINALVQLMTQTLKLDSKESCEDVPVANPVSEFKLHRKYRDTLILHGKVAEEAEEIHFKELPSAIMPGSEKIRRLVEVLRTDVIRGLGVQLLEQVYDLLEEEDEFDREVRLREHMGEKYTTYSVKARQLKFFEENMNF

[5] = molecular target: Cyclin-dependent kinase 11B (Homo sapiens) (UniProt P21127); conditions: Compound concentration 100.0 nM
Chain of Cyclin-dependent kinase 11B (Homo sapiens) (P21127 whole entry): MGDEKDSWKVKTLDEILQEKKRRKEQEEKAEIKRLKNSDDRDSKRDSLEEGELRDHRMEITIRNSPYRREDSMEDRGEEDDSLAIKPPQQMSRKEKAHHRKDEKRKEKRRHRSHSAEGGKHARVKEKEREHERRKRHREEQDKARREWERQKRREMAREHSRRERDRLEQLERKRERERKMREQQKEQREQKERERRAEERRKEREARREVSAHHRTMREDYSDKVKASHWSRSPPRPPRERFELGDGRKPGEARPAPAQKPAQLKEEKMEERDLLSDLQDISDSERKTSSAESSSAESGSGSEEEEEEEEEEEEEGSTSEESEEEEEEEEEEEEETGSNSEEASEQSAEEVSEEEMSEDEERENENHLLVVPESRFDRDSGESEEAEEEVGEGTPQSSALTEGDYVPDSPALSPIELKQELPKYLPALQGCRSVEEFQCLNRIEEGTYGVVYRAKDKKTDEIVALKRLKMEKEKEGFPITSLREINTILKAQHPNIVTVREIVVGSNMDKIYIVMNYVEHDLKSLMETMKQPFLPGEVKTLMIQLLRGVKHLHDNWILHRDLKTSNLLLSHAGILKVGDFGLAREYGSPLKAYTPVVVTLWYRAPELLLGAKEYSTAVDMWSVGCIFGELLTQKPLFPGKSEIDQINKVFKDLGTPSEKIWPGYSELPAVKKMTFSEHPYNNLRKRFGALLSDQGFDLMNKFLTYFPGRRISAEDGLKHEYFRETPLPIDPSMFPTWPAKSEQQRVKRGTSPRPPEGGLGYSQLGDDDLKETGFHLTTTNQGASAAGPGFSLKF

[6] = molecular target: T2, Serine/threonine-protein kinase Nek1 (Homo sapiens) (UniProt Q96PY6); conditions: Compound concentration 100.0 nM
T2 sequence (whole entry): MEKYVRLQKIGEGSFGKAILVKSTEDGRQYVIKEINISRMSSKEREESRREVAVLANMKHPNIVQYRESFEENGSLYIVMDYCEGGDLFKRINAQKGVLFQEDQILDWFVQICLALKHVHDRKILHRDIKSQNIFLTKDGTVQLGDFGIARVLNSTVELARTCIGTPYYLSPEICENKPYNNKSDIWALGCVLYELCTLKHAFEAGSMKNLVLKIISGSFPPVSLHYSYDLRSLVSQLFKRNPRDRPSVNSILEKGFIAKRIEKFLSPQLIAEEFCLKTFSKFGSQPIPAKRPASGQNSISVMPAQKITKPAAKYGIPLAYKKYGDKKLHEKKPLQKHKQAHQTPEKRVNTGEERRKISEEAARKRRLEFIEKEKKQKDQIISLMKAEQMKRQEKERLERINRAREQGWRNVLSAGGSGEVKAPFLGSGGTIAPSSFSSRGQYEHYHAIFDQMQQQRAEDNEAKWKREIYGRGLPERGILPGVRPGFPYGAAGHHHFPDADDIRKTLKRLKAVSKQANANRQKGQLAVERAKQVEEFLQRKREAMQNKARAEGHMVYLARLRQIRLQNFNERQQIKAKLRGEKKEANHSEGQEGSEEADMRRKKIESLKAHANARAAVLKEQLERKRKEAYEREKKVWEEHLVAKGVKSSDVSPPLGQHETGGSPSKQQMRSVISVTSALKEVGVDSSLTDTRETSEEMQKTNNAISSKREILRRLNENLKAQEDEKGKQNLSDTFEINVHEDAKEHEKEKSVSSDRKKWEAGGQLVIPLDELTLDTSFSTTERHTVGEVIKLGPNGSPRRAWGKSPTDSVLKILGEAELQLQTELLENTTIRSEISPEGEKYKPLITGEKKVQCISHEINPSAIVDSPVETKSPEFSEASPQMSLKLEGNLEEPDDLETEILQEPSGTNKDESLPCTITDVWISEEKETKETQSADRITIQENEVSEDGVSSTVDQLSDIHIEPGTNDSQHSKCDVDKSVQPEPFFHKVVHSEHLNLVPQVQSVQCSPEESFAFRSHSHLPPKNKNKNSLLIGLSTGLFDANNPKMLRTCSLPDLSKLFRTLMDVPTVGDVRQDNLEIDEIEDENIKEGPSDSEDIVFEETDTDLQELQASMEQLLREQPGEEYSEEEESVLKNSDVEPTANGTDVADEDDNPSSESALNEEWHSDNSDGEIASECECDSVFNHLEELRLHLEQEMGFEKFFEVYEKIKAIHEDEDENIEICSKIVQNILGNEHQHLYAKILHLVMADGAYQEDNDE

[7] = molecular target: Muscarinic acetylcholine receptor M5 (Homo sapiens) (UniProt P08912); conditions: Compound concentration 10.0 uM
Chain of Muscarinic acetylcholine receptor M5 (Homo sapiens) (P08912 whole entry): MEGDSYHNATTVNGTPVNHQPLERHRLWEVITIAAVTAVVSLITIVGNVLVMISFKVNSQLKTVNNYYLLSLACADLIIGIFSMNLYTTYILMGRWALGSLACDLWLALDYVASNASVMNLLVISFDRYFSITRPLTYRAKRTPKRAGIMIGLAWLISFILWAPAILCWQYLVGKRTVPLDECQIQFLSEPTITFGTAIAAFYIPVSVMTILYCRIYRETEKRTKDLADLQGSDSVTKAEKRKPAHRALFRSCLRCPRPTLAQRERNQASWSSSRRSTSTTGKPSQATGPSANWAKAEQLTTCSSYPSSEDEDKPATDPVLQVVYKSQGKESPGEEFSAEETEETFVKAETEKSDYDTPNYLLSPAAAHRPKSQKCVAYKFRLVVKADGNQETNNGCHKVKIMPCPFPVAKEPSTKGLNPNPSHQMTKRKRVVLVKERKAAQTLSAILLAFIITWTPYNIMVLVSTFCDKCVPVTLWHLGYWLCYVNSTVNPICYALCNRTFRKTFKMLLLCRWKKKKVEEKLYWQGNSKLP

[8] = molecular target: Serine/threonine-protein kinase 35 (Homo sapiens) (UniProt Q8TDR2); conditions: Compound concentration 100.0 nM
Chain of Serine/threonine-protein kinase 35 (Homo sapiens) (Q8TDR2 whole entry): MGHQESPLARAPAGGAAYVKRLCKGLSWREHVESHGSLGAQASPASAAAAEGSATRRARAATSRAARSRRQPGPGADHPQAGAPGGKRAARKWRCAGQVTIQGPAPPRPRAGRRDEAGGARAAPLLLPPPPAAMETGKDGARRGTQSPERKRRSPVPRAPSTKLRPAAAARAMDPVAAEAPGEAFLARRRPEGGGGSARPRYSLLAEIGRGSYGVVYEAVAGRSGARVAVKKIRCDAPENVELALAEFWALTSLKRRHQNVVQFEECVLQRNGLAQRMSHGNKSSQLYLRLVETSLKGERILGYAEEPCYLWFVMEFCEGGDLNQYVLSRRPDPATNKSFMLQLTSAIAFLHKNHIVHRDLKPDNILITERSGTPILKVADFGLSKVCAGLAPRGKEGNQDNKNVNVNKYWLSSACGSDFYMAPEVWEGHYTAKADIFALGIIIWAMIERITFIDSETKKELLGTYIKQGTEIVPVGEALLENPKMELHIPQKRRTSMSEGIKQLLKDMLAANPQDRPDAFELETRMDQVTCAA

[9] = molecular target: Proto-oncogene tyrosine-protein kinase Src (Homo sapiens) (UniProt P12931); conditions: Compound concentration 100.0 nM
[10] = molecular target: 3-phosphoinositide-dependent protein kinase 1 (Homo sapiens) (UniProt O15530); conditions: Compound concentration 100.0 nM
Chain of 3-phosphoinositide-dependent protein kinase 1 (Homo sapiens) (O15530 whole entry): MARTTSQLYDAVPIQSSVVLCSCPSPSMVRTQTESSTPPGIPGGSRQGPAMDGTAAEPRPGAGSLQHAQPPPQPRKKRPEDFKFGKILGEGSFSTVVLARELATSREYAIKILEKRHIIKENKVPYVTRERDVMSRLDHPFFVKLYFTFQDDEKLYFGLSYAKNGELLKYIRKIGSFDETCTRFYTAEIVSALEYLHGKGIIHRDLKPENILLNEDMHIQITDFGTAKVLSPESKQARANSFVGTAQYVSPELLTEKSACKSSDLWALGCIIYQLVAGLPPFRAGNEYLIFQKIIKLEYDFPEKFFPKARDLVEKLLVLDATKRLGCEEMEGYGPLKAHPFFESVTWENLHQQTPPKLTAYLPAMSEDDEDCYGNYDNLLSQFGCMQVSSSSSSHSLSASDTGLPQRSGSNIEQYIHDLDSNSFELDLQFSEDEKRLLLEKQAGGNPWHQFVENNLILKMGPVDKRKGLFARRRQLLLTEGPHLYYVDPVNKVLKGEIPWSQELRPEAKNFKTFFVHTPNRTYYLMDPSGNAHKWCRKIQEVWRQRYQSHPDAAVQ

[11] = system: Tyrosine-protein kinase ABL1 (Homo sapiens), P00519 [T315I]; conditions: Compound concentration 100.0 nM

Chain of Ephrin type-B receptor 1 (Homo sapiens) (P54762 whole entry, canonical isoform): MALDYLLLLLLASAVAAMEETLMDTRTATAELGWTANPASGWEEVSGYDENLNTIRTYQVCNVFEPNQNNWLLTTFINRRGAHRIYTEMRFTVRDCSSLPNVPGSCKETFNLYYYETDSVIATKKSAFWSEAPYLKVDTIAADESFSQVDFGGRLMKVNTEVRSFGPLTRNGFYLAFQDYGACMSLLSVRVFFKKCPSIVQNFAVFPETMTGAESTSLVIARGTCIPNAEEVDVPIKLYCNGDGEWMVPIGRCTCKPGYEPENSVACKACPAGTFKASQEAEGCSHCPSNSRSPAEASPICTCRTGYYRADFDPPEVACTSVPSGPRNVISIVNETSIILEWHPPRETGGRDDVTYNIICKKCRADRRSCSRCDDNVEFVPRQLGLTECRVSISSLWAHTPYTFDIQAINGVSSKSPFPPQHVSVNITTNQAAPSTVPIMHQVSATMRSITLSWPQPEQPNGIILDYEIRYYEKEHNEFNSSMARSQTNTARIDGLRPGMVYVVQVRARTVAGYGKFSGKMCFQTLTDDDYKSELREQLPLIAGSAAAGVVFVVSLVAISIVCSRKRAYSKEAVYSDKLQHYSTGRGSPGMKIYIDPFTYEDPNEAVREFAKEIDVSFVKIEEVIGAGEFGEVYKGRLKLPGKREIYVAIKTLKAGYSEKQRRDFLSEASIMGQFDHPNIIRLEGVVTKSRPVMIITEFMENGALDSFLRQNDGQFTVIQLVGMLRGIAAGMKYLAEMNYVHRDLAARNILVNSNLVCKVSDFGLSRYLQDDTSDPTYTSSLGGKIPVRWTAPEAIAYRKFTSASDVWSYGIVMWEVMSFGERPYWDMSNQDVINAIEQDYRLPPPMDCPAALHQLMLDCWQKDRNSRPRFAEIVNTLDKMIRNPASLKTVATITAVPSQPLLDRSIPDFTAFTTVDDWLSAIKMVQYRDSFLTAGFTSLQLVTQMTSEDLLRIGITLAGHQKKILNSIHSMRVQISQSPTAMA
Chain of Mitogen-activated protein kinase 6 (Homo sapiens) (Q16659 whole entry): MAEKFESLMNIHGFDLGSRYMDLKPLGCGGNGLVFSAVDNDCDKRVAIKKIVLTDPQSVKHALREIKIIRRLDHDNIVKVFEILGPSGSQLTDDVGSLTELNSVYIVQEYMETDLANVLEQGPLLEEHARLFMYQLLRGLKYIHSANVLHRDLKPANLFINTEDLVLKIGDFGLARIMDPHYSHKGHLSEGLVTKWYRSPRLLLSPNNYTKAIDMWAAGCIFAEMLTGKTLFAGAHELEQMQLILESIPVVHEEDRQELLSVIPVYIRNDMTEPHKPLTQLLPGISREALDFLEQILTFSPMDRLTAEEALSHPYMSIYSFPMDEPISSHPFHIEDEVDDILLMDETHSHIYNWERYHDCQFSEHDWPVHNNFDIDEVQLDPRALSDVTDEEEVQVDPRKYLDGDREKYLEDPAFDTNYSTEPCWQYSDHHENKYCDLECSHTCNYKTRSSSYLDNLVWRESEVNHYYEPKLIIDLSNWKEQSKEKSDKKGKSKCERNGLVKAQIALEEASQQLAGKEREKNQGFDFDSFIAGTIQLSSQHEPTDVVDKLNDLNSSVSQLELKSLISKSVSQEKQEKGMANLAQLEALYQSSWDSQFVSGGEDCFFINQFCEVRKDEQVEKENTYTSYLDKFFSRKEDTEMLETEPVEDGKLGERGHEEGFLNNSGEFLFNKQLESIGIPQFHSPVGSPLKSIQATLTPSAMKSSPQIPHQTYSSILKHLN

CCOC(=O)c1cc2cc(-c3cc(C(=O)NCc4ccc(C(=O)O)cc4)nn3C)ccc2[nH]1 [BI 4394]
inactive: residual activity [1] 97% | residual activity [2] 100% | residual activity [3] 100% | residual activity [4] 81% | residual activity [5] 98% | residual activity [6] 100% | inhibition [7] 7.64% | residual activity [8] 94% | residual activity [9] 93% | residual activity [10] 92% | residual activity [11] 83%

Cn1nc(C(=O)NCc2ccc(C(=O)O)cc2)cc1-c1ccc2[nH]ccc2c1 [BI 4395]
inactive: residual activity [1] 100% | residual activity [2] 87% | residual activity [3] 86% | residual activity [4] 84% | residual activity [5] 93% | residual activity [6] 100% | inhibition [7] -7.43% | residual activity [8] 94% | residual activity [9] 100% | residual activity [10] 100% | residual activity [11] 73%
